# Assay results taken from the kinase profiling compilation of Christmann-Franck et al. (2016).
# Assays:
# Assay in all cases: radiometric filter-binding kinase assay, Kinase HotSpot
# Conditions in all cases: compound 0.5 µM; ATP 10 µM
# CDK4 CCND3 (human) = CDK4 CCND3 (human) (UniProt P30281+P11802)
# FYN (human) = FYN (human) (UniProt P06241)
# TSSK2 (human) = TSSK2 (human) (UniProt Q96PF2)
# CDK7 CCNH MNAT1 (human) = CDK7 CCNH MNAT1 (human) (UniProt P50613+P51948+P51946)
# CSNK1G3 (human) = CSNK1G3 (human) (UniProt Q9Y6M4)
# MYLK2 (human) = MYLK2 (human) (UniProt Q9H1R3)
# GRK5 (human) = GRK5 (human) (UniProt P34947)
# MAP3K10 (human) = MAP3K10 (human) (UniProt Q02779)
# KDR (human) = KDR (human) (UniProt P35968)
# FLT3 (human) = FLT3 (human) (UniProt P36888)
# EPHB1 (human) = EPHB1 (human) (UniProt P54762)
# [1] = target: TYK2 JH1 catalytic (human) (UniProt P29597)
# RIPK2 (human) = RIPK2 (human) (UniProt O43353)
# AKT1 (human) = AKT1 (human) (UniProt P31749)
# Sequence of AKT1 (human) (P31749 whole entry, looked up): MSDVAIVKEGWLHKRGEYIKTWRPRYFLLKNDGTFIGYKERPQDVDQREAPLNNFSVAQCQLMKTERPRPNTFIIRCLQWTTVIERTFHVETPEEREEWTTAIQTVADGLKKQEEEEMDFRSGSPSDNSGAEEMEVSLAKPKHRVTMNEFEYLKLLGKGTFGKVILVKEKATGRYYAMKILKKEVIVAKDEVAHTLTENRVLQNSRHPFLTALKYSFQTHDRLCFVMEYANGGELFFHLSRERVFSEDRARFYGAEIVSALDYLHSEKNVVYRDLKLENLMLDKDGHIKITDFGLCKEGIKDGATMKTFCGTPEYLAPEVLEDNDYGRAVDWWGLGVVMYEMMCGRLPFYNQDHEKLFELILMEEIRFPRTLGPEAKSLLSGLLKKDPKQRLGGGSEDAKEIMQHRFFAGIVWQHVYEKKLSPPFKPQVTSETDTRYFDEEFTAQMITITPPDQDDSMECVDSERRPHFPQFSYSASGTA
# AURKB (human) = AURKB (human) (UniProt Q96GD4)
# CSNK1E (human) = CSNK1E (human) (UniProt P49674)
# MELK (human) = MELK (human) (UniProt Q14680)
# [2] = system: PRKCQ (human), Q04759 [P330L]
# INSRR (human) = INSRR (human) (UniProt P14616)
# TEC (human) = TEC (human) (UniProt P42680)
# WNK2 (human) = WNK2 (human) (UniProt Q9Y3S1)
# MERTK (human) = MERTK (human) (UniProt Q12866)
# ERBB4 (human) = ERBB4 (human) (UniProt Q15303)
# MAPK9 (human) = MAPK9 (human) (UniProt P45984)
# Sequence of MAPK9 (human) (P45984 whole entry, looked up): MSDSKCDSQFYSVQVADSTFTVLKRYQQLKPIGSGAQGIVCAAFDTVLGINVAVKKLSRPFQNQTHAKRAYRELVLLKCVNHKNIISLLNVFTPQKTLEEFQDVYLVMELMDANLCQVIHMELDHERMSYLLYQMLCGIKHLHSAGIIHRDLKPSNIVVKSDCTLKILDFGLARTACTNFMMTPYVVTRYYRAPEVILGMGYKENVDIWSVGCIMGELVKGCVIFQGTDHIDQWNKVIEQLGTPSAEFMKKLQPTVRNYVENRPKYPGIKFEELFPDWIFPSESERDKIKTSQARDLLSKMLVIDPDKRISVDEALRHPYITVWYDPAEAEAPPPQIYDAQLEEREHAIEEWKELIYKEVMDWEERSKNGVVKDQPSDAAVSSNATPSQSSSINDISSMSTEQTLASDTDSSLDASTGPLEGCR
# HIPK4 (human) = HIPK4 (human) (UniProt Q8NE63)
# RPS6KB2 (human) = RPS6KB2 (human) (UniProt Q9UBS0)
# PKN1 (human) = PKN1 (human) (UniProt Q16512)
# Sequence of PKN1 (human) (Q16512 whole entry, looked up): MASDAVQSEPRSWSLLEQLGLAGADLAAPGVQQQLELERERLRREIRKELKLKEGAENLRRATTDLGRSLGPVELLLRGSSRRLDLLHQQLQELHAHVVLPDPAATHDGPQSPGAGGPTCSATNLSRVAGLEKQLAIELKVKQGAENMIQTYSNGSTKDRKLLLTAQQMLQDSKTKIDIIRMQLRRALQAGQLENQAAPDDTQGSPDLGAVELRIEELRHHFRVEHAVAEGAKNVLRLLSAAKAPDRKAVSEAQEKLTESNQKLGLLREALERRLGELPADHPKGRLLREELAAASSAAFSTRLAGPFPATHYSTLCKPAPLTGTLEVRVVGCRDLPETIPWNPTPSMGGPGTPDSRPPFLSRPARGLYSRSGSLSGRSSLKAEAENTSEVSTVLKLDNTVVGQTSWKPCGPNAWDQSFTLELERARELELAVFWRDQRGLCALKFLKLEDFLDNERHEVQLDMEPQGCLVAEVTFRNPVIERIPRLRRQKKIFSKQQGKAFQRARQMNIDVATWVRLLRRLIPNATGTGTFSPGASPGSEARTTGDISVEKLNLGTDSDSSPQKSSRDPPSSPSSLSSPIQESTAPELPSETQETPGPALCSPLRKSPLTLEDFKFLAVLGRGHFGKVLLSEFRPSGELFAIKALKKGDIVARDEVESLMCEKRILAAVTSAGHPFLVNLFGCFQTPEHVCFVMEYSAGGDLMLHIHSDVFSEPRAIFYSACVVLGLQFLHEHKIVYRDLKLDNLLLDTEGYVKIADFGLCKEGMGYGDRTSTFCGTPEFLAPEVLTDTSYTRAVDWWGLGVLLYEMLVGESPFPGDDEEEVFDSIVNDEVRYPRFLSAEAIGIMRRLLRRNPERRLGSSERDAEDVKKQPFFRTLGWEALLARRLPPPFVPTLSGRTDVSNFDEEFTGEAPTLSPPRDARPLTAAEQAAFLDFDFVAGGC
# RPS6KA4 KD2 (human) = RPS6KA4 KD2 (human) (UniProt O75676)
# PIM1 (human) = PIM1 (human) (UniProt P11309)
# DAPK1 (human) = DAPK1 (human) (UniProt P53355)
# MAP3K9 (human) = MAP3K9 (human) (UniProt P80192)
# [3] = system: MKNK1 (human), Q9BUB5 [T385D; 165-205 del]
# SRC (human) = SRC (human) (UniProt P12931)
# DCLK2 (human) = DCLK2 (human) (UniProt Q8N568)
# CLK2 (human) = CLK2 (human) (UniProt P49760)
# Sequence of CLK2 (human) (P49760 whole entry, looked up): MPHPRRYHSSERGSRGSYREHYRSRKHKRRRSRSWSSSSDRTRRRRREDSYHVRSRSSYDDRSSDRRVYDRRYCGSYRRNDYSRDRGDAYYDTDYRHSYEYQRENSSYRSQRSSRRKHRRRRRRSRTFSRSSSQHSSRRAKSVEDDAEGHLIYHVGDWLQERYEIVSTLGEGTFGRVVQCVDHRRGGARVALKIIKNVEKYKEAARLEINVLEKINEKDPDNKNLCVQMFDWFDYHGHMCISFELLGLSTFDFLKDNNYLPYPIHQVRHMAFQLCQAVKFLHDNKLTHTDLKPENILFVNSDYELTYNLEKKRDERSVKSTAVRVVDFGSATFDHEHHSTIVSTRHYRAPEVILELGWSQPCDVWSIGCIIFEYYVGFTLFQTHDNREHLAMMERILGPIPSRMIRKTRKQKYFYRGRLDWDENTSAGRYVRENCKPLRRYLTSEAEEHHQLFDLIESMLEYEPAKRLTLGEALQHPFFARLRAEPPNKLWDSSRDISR
# DYRK4 (human) = DYRK4 (human) (UniProt Q9NR20)
# FGFR4 (human) = FGFR4 (human) (UniProt P22455)
# Sequence of FGFR4 (human) (P22455 whole entry, looked up): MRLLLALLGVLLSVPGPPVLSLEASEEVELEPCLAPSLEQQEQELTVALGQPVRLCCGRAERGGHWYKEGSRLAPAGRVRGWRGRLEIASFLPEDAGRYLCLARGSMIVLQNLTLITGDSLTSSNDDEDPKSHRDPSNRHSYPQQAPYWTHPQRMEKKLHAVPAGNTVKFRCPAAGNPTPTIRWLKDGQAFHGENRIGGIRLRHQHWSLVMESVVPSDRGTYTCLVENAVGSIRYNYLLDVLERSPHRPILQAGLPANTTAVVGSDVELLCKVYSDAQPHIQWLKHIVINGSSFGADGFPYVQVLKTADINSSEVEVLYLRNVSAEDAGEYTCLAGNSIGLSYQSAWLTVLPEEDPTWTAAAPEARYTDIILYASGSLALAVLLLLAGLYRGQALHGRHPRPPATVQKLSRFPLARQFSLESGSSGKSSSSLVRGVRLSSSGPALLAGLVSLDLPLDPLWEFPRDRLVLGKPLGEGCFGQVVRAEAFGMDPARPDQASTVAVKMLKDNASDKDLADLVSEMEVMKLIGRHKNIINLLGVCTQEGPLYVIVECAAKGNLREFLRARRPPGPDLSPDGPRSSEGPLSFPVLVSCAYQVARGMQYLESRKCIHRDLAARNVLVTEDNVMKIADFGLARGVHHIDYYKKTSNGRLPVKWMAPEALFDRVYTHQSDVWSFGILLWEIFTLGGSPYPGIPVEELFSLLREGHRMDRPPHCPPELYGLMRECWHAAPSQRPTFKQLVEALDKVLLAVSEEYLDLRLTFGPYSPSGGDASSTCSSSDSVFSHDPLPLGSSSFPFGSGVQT
# BLK (human) = BLK (human) (UniProt P51451)
# PHKG1 (human) = PHKG1 (human) (UniProt Q16816)
# STK11 (human) = STK11 (human) (UniProt Q15831)
# Sequence of STK11 (human) (Q15831 whole entry, looked up): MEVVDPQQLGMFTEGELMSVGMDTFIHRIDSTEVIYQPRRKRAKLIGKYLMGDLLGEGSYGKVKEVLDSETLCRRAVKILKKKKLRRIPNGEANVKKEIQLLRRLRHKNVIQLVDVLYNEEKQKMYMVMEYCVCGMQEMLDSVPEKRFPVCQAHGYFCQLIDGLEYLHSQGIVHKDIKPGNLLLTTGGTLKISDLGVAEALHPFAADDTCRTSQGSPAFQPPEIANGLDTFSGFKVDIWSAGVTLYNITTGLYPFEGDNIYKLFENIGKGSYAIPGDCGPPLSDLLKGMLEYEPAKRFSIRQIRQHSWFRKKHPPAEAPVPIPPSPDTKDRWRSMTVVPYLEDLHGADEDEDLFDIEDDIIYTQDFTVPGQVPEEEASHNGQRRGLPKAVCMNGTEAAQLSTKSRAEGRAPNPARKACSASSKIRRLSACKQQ
# ROCK2 (human) = ROCK2 (human) (UniProt O75116)
# INSR (human) = INSR (human) (UniProt P06213)
# Sequence of INSR (human) (P06213 whole entry, looked up): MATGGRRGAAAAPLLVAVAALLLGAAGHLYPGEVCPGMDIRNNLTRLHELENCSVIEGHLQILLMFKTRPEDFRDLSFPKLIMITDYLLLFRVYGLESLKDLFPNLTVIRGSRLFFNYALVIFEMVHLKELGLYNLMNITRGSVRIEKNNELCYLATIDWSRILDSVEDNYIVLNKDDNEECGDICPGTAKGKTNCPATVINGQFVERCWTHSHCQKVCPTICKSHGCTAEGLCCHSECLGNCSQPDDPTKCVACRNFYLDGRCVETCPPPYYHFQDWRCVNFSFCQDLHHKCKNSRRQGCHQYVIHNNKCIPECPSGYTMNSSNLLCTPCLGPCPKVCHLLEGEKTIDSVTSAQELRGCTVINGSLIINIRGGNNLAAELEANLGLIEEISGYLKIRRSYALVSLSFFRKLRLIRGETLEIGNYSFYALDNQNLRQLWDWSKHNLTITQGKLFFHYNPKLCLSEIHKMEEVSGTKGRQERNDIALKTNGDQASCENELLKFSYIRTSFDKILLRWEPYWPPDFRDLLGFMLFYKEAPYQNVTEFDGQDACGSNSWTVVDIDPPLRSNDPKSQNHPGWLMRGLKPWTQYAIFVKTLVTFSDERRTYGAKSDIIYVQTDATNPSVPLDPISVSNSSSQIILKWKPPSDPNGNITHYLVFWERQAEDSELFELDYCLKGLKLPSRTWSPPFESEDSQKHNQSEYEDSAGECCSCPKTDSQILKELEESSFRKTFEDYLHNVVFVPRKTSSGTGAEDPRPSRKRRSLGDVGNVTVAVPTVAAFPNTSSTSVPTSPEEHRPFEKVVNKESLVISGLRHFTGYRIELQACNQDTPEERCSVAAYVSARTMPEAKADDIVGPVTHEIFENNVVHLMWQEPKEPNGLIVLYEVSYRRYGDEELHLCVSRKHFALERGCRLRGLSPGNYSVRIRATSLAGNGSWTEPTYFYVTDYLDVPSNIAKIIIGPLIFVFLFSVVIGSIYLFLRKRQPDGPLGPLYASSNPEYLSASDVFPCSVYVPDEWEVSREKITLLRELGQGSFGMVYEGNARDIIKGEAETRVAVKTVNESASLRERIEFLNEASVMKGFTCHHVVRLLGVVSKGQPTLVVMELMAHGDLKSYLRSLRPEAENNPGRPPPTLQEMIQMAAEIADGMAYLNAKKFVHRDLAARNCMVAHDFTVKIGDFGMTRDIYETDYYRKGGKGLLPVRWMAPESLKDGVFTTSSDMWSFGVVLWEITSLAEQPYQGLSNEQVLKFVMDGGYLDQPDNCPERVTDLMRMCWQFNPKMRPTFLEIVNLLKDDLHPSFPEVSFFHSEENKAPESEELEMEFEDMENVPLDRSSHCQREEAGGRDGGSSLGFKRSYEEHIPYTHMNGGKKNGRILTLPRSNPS
smiles,measurement,setting,value
COc1ccc2c(c1)c(C1=C(c3c[nH]c4ccccc34)C(=O)NC1=O)cn2CCCN(C)C,residual activity,CDK4 CCND3 (human),95.5%
same,residual activity,FYN (human),110%
same,residual activity,TSSK2 (human),85.5%
same,residual activity,CDK7 CCNH MNAT1 (human),88%
same,residual activity,CSNK1G3 (human),77.8%
same,residual activity,MYLK2 (human),96%
same,residual activity,GRK5 (human),114%
same,residual activity,MAP3K10 (human),83.4%
same,residual activity,KDR (human),40.7%
same,residual activity,FLT3 (human),23.2%
same,residual activity,EPHB1 (human),91.7%
same,residual activity,[1],126%
same,residual activity,RIPK2 (human),70.2%
same,residual activity,AKT1 (human),99%
same,residual activity,AURKB (human),88.5%
same,residual activity,CSNK1E (human),86.4%
same,residual activity,MELK (human),70.7%
same,residual activity,[2],4.5%
same,residual activity,INSRR (human),101%
same,residual activity,TEC (human),97.9%
same,residual activity,WNK2 (human),96.5%
same,residual activity,MERTK (human),84%
same,residual activity,ERBB4 (human),93.4%
same,residual activity,MAPK9 (human),86.1%
same,residual activity,HIPK4 (human),101%
same,residual activity,RPS6KB2 (human),65.4%
same,residual activity,PKN1 (human),34.7%
same,residual activity,RPS6KA4 KD2 (human),78.6%
same,residual activity,PIM1 (human),11.6%
same,residual activity,DAPK1 (human),105%
same,residual activity,MAP3K9 (human),57.6%
same,residual activity,[3],92.8%
same,residual activity,SRC (human),79.8%
same,residual activity,DCLK2 (human),84.8%
same,residual activity,CLK2 (human),78%
same,residual activity,DYRK4 (human),97.3%
same,residual activity,FGFR4 (human),79.2%
same,residual activity,BLK (human),78.8%
same,residual activity,PHKG1 (human),66.4%
same,residual activity,STK11 (human),101%
same,residual activity,ROCK2 (human),89.2%
same,residual activity,INSR (human),94.1%
CC(C)(C)c1cc(C=C(C#N)C#N)cc(Br)c1O,residual activity,CDK4 CCND3 (human),96.5%
same,residual activity,FYN (human),67.2%
same,residual activity,TSSK2 (human),96.6%
same,residual activity,CDK7 CCNH MNAT1 (human),98.5%
same,residual activity,CSNK1G3 (human),85.8%
same,residual activity,MYLK2 (human),99.3%
same,residual activity,GRK5 (human),108%
same,residual activity,MAP3K10 (human),100%
same,residual activity,KDR (human),97.8%
same,residual activity,FLT3 (human),102%
same,residual activity,EPHB1 (human),114%
same,residual activity,[1],61.3%
same,residual activity,RIPK2 (human),32.8%
same,residual activity,AKT1 (human),108%
same,residual activity,AURKB (human),97.1%
same,residual activity,CSNK1E (human),92.1%
same,residual activity,MELK (human),91.6%
same,residual activity,[2],98%
same,residual activity,INSRR (human),103%
same,residual activity,TEC (human),171%
same,residual activity,WNK2 (human),126%
same,residual activity,MERTK (human),97.3%
same,residual activity,ERBB4 (human),94%
same,residual activity,MAPK9 (human),103%
same,residual activity,HIPK4 (human),103%
same,residual activity,RPS6KB2 (human),102%
same,residual activity,PKN1 (human),94.5%
same,residual activity,RPS6KA4 KD2 (human),90.9%
same,residual activity,PIM1 (human),94.7%
same,residual activity,DAPK1 (human),85.9%
same,residual activity,MAP3K9 (human),90.2%
same,residual activity,[3],95.9%
same,residual activity,SRC (human),87.4%
same,residual activity,DCLK2 (human),109%
same,residual activity,CLK2 (human),104%
same,residual activity,DYRK4 (human),98.2%
same,residual activity,FGFR4 (human),98%
same,residual activity,BLK (human),97.9%
same,residual activity,PHKG1 (human),96.7%
same,residual activity,STK11 (human),85.2%
same,residual activity,ROCK2 (human),95.6%
same,residual activity,INSR (human),105%
c1ccc2c(-c3ccncc3)c[nH]c2c1,residual activity,CDK4 CCND3 (human),102%
same,residual activity,FYN (human),98.7%
same,residual activity,TSSK2 (human),96.9%
same,residual activity,CDK7 CCNH MNAT1 (human),97%
same,residual activity,CSNK1G3 (human),108%
same,residual activity,MYLK2 (human),96.2%
same,residual activity,GRK5 (human),99.2%
same,residual activity,MAP3K10 (human),101%
same,residual activity,KDR (human),94.2%
same,residual activity,FLT3 (human),91.5%
same,residual activity,EPHB1 (human),108%
same,residual activity,[1],101%
same,residual activity,RIPK2 (human),89.9%
same,residual activity,AKT1 (human),100%
same,residual activity,AURKB (human),95.9%
same,residual activity,CSNK1E (human),100%
same,residual activity,MELK (human),102%
same,residual activity,[2],125%
same,residual activity,INSRR (human),101%
same,residual activity,TEC (human),123%
same,residual activity,WNK2 (human),96.9%
same,residual activity,MERTK (human),93%
same,residual activity,ERBB4 (human),83.7%
same,residual activity,MAPK9 (human),103%
same,residual activity,HIPK4 (human),93.8%
same,residual activity,RPS6KB2 (human),97.8%
same,residual activity,PKN1 (human),66.4%
same,residual activity,RPS6KA4 KD2 (human),91%
same,residual activity,PIM1 (human),93.5%
same,residual activity,DAPK1 (human),97.7%
same,residual activity,MAP3K9 (human),83.3%
same,residual activity,[3],75.5%
same,residual activity,SRC (human),100%
same,residual activity,DCLK2 (human),98.1%
same,residual activity,CLK2 (human),101%
same,residual activity,DYRK4 (human),98.7%
same,residual activity,FGFR4 (human),84.6%
same,residual activity,BLK (human),99.6%
same,residual activity,PHKG1 (human),90.3%
same,residual activity,STK11 (human),90.7%
same,residual activity,ROCK2 (human),71.9%
same,residual activity,INSR (human),90.5%
